From patent publication US20250034135A1, “ANTI-APOPTOTIC PROTEIN BCL-2 INHIBITOR, PHARMACEUTICAL COMPOSITION AND USES THEREOF” (HANGZHOU HEALZEN THERAPEUTICS CO., LTD., priority 2021, published 2025)

target: BCL2 (Homo sapiens (Human), UniProt P10415); assay: Molecular level activity test of anti-apoptotic protein BCL2 (HTRF, binding to Bim peptide); settings: HTRF, binding of BCL2 to Bim peptide; read-out: BCL2 nM (inhibitory activity, IC50)
How it was run: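 HTRF binding of His-tagged recombinant BCL2 to biotin-tagged Bim peptide, compound in 2% DMSO. After 1 h reaction, anti-His and streptavidin-XL665 detection reagents were added and incubated 4 h at room temperature before reading.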

BCL2, sequence (P10415 whole entry): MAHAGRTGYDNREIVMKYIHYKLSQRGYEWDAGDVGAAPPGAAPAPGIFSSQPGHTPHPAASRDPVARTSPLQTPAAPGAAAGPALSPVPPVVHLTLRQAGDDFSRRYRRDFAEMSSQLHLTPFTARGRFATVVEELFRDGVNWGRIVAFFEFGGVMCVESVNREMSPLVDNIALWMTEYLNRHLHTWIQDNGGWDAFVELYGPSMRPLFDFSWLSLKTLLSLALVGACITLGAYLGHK

IC50, < 10 nM:
COc1ccc(CN2CCN(C3CC4(CCN(c5ccc(C(=O)NS(=O)(=O)c6cc([N+](=O)[O-])c(NCC7CCOCC7)c7[nH]cnc67)c(N6CCOc7nc8[nH]ccc8cc76)c5)CC4)C3)C(c3ccccc3C(C)C)C2)cc1 (stereo not shown) [compound 091, 2-(2,3-dihydropyrrolo[3′,2′:5,6]pyridino[2,3-b][1,4]oxazin-1 (6H)-yl)-4-(2-(2-(2-isopropylphenyl)-4-(4-methoxybenzyl)piperazin-1-yl)-7-azaspiro[3.5]non-7-yl)-N-((6-nitro-7-(((tetrahydro-2H-pyran-4-yl)methyl)amino)-1H-benzo[d]imidazol-4-yl)sulfonyl)benzamide]
CC(C)c1ccccc1[C@@H]1CCCN1C1CC2(CCN(c3cc(Oc4cnc5[nH]ccc5c4)c(C(=O)NS(=O)(=O)c4cc([N+](=O)[O-])c(NCC5(F)CCOCC5)c5c4OCO5)cc3F)CC2)C1 [compound 101, (S)-2-((1H-pyrrolo[2,3-b]pyrid-5-yl)oxy)-5-fluoro-N-((7-(((4-fluorotetrahydro-2H-pyran-4-yl)methyl)amino)-6-nitrobenzo[d][1,3]dioxocyclopent-4-yl)sulfonyl)-4-(2-(2-(2-isopropylphenyl)pyrrolidin-1-yl)-7-azaspiro[3.5]non-7-yl)benzamide]
COc1ccc(CN2CCN(C3CC4(CCN(c5ccc(C(=O)NS(=O)(=O)c6cc([N+](=O)[O-])c(NC[C@H]7CC[C@](C)(O)CC7)c7[nH]cnc67)c(Oc6cnc7[nH]ccc7c6)c5)CC4)C3)C(c3ccccc3C(C)C)C2)cc1 (stereo partly shown) [compound 039, 2-((1H-pyrrolo[2,3-b]pyrid-5-yl)oxy)-N-((7-((((1r,4r)-4-hydroxy-4-methylcyclohexyl)methyl)amino)-6-nitro-1H-benzo[d]imidazol-4-yl)sulfonyl)-4-(2-(2-(2-isopropylphenyl)-4-(4-methoxybenzyl)piperazin-1-yl)-7-azaspiro[3.5]non-7-yl)benzamide]
CC(C)c1ccccc1[C@@H]1CCCN1C1CC2(CCN(c3ccc(C(=O)NS(=O)(=O)c4cc([N+](=O)[O-])c(NC[C@H]5CC[C@](C)(O)CC5)c5[nH]cnc45)c(N4CCCOc5nc6[nH]ccc6cc54)c3)CC2)C1 [compound 085, 2-(3,4-dihydro-2H-pyrrolo[3′,2′:5,6]pyridino[2,3-b][1,4]oxazacyclohept-1 (7H)-yl)-N-((7-((((1r,4r)-4-hydroxy-4-methylcyclohexyl)methyl)amino)-6-nitro-1H-benzo[d]imidazol-4-yl)sulfonyl)-4-(2-((S)-2-(2-isopropylphenyl)pyrrolidin-1-yl)-7-azaspiro[3.5]non-7-yl)benzamide]
COc1ccc(CN2CCN(C3CC4(CCN(c5cc(Oc6cnc7[nH]ccc7c6)c(C(=O)NS(=O)(=O)c6cc([N+](=O)[O-])c(NCC7CCOCC7)c7[nH]cnc67)cc5F)CC4)C3)C(c3ccccc3C(C)C)C2)cc1 (stereo not shown) [compound 076, 2-((1H-pyrrolo[2,3-b]pyrid-5-yl)oxy)-5-fluoro-4-(2-(2-(2-isopropylphenyl)-4-(4-methoxybenzyl)piperazin-1-yl)-7-azaspiro[3.5]non-7-yl)-N-((6-nitro-7-(((tetrahydro-2H-pyran-4-yl)methyl)amino)-1H-benzo[d]imidazol-4-yl)sulfonyl)benzamide]
COc1ccc(CN2CCN(C3CC4(CCN(c5cc(Oc6cnc7[nH]ccc7c6)c(C(=O)NS(=O)(=O)c6cc([N+](=O)[O-])c(NC[C@H]7CC[C@](C)(O)CC7)c7oc(C)cc67)cc5F)CC4)C3)[C@H](c3ccccc3C(C)C)C2)cc1 [compound 117, 2-((1H-pyrrolo[2,3-b]pyrid-5-yl)oxy)-5-fluoro-N-((7-((((1r, 4r)-4-hydroxy-4-methylcyclohexyl)methyl)amino)-2-methyl-6-nitrobenzofuran-4-yl)sulfonyl)-4-(2-((R)-2-(2-isopropylphenyl)-4-(4-methoxybenzyl)piperazin-1-yl)-7-azaspiro[3.5]non-7-yl)benzamide]
CC(C)c1ccccc1[C@@H]1CCCN1C1CC2(CCN(c3cc(Oc4cnc5[nH]ccc5c4)c(C(=O)NS(=O)(=O)c4cc([N+](=O)[O-])c(NCC5(F)CCOCC5)c5c4CCO5)cc3F)CC2)C1 [compound 105, (S)-2-((1H-pyrrolo[2,3-b]pyrid-5-yl)oxy)-5-fluoro-N-((7-(((4-fluorotetrahydro-2H-pyran-4-yl)methyl)amino)-6-nitro-2,3-dihydrobenzofuran-4-yl)sulfonyl)-4-(2-(2-(2-isopropylphenyl)pyrrolidin-1-yl)-7-azaspiro[3.5]non-7-yl)benzamide]
CC(C)c1ccccc1[C@@H]1CCCN1C1CC2(CCN(c3cc(Oc4cnc5[nH]ccc5c4)c(C(=O)NS(=O)(=O)c4cc([N+](=O)[O-])c(NCC5(F)CCN(C(=O)CN(C)C)CC5)c5[nH]cnc45)cn3)CC2)C1 [compound 029, (S)-4-((1H-pyrrolo[2,3-b]pyrid-5-yl)oxy)-N-((7-(((1-(dimethylglycyl)-4-fluoropiperid-4-yl)methyl)amino)-6-nitro-1H-benzo[d]imidazol-4-yl)sulfonyl)-6-(2-(2-(2-isopropylphenyl)pyrrolidin-1-yl)-7-azaspiro[3.5]non-7-yl) nicotinamide]
CC(C)c1ccccc1[C@@H]1CN(Cc2ccc(C3CC3)cc2)CCN1C1CC2(CCN(c3ccc(C(=O)NS(=O)(=O)c4cc([N+](=O)[O-])c(NC[C@H]5CC[C@](C)(O)CC5)c5c4OCO5)c(Oc4cnc5[nH]ccc5c4)c3)CC2)C1 [compound 178, 2-((1H-pyrrolo[2,3-b]pyrid-5-yl)oxy)-4-(2-((R)-4-(4-cyclopropylbenzyl)-2-(2-isopropylphenyl)piperazin-1-yl)-7-azaspiro[3.5]non-7-yl)-N-((7-((((1r, 4r)-4-hydroxy-4-methylcyclohexyl)methyl)amino)-6-nitrobenzo[d][1,3]dioxocyclopent-4-yl)sulfonyl)benzamide]
COc1ccc(CN2CCN(C3CC4(C3)CN(c3cc(Oc5cnc6[nH]ccc6c5)c(C(=O)NS(=O)(=O)c5ccc(NCC6(F)CCN(C7COC7)CC6)c([N+](=O)[O-])c5)cn3)C4)C(c3ccccc3C(C)C)C2)cc1 (stereo not shown) [compound 054]
CC(C)c1ccccc1[C@@H]1CCCN1C1CC2(CCN(c3cc(Oc4cnc5[nH]ccc5c4)c(C(=O)NS(=O)(=O)c4cc([N+](=O)[O-])c(NC[C@H]5CC[C@](C)(O)CC5)c5c4OCO5)cc3F)CC2)C1 [compound 096, 2-((1H-pyrrolo[2,3-b]pyrid-5-yl)oxy)-5-fluoro-N-((7-((((1r, 4r)-4-hydroxy-4-methylcyclohexyl)methyl)amino)-6-nitrobenzo[d][1,3]dioxocyclopent-4-yl)sulfonyl)-4-(2-((S)-2-(2-isopropylphenyl)pyrrolidin-1-yl)-7-azaspiro[3.5]non-7-yl)benzamide]
COc1ccc(CN2CCN(C3CC4(CCN(c5cc(Oc6cnc7[nH]ccc7c6)c(C(=O)NS(=O)(=O)c6cc([N+](=O)[O-])c(NC[C@H]7COCCO7)c7scnc67)cc5F)CC4)C3)[C@H](c3ccccc3C(C)C)C2)cc1 [compound 125]
COc1cc(CN2CCN(C3CC4(CCN(c5ccc(C(=O)NS(=O)(=O)c6cc([N+](=O)[O-])c(NCC7(F)CCOCC7)c7c6OCO7)c(Oc6cnc7[nH]ccc7c6)c5)CC4)C3)[C@H](c3ccccc3C(C)C)C2)cc2cc(C)oc12 [compound 171, (R)-2-((1H-pyrrolo[2,3-b]pyrid-5-yl)oxy)-N-((7-(((4-fluorotetrahydro-2H-pyran-4-yl)methyl)amino)-6-nitrobenzo[d][1,3]dioxocyclopent-4-yl)sulfonyl)-4-(2-(2-(2-isopropylphenyl)-4-((7-methoxy-2-methylbenzofuran-5-yl)methyl)piperazin-1-yl)-7-azaspiro[3.5]non-7-yl)benzamide]
CC(C)c1ccccc1[C@@H]1CCCN1C1CC2(CCN(c3cc(N4CCOc5nc6[nH]ccc6cc54)c(C(=O)NS(=O)(=O)c4cc([N+](=O)[O-])c(NC[C@H]5CC[C@](C)(O)CC5)c5[nH]cnc45)cn3)CC2)C1 [compound 081, 4-(2,3-dihydropyrrolo[3′,2′:5,6]pyridino[2,3-b][1,4]oxazin-1 (6H)-yl)-N-((7-((((1r,4r)-4-hydroxy-4-methylcyclohexyl)methyl)amino)-6-nitro-1H-benzo[d]imidazol-4-yl)sulfonyl)-6-(2-((S)-2-(2-isopropylphenyl)pyrrolidin-1-yl)-7-azaspiro[3.5]non-7-yl) nicotinamide]
CC(C)c1ccccc1[C@@H]1CCCN1C1CC2(CCN(c3ccc(C(=O)NS(=O)(=O)c4cc([N+](=O)[O-])c(NCC5CCOCC5)c5c4OCO5)c(Oc4cnc5[nH]ccc5c4)c3)CC2)C1 [compound 160, (S)-2-((1H-pyrrolo[2,3-b]pyrid-5-yl)oxy)-4-(2-(2-(2-isopropylphenyl)pyrrolidin-1-yl)-7-azaspiro[3.5]non-7-yl)-N-((6-nitro-7-(((tetrahydro-2H-pyran-4-yl)methyl)amino)benzo[d][1,3]dioxocyclopent-4-yl)sulfonyl)benzamide]
CC(C)c1ccccc1[C@@H]1CN(Cc2ccc(F)c(F)c2)CCN1C1CC2(CCN(c3ccc(C(=O)NS(=O)(=O)c4cc([N+](=O)[O-])c(NCC5(F)CCOCC5)c5c4OCO5)c(Oc4cnc5[nH]ccc5c4)c3)CC2)C1 [compound 168, (R)-2-((1H-pyrrolo[2,3-b]pyrid-5-yl)oxy)-4-(2-(4-(3,4-difluorobenzyl)-2-(2-isopropylphenyl)piperazin-1-yl)-7-azaspiro[3.5]non-7-yl)-N-((7-(((4-fluorotetrahydro-2H-pyran-4-yl)methyl)amino)-6-nitrobenzo[d][1,3]dioxocyclopent-4-yl)sulfonyl)benzamide]
